Source: ChEMBL document CHEMBL3272243, “Synthesis and biological activity of camel and bovine beta-melanotropins” (1976)

Tests used:
Format in all cases: functional, Anura
Set-up in all cases: scale not given: the % may be the effect or the level left
Zone of skin [1] = test: Melanocyte stimulating activity in frog skin assessed as decrease in reflectance at 5.4 ng relative to control
Zone of skin [2] = test: Melanocyte stimulating activity in frog skin assessed as decrease in reflectance at 2.7 ng relative to control
Zone of skin [3] = test: Melanocyte stimulating activity in frog skin assessed as decrease in reflectance at 1.8 ng relative to control
Zone of skin [4] = test: Melanocyte stimulating activity in frog skin assessed as decrease in reflectance at 8.1 ng relative to control
Zone of skin [5] = test: Melanocyte stimulating activity in frog skin assessed as decrease in reflectance at 2.7 to 8.1 ng relative to camel betaC2-MSH
Zone of skin [6] = test: Melanocyte stimulating activity in frog skin assessed as decrease in reflectance at 2.7 to 8.1 ng relative to bovine beta-MSH
Zone of skin [7] = test: Melanocyte stimulating activity in frog skin assessed as decrease in reflectance at 6.9 ng relative to control
Zone of skin [8] = test: Melanocyte stimulating activity in frog skin assessed as decrease in reflectance at 2.3 ng relative to control

Row | Substance | Activity (Zone of skin [1]) [%] | Activity (Zone of skin [2]) [%] | Activity (Zone of skin [3]) [%] | Activity (Zone of skin [4]) [%] | Activity (Zone of skin [5]) [%] | Activity (Zone of skin [6]) [%] | Activity (Zone of skin [7]) [%] | Activity (Zone of skin [8]) [%]
1 | H-DGGPYKMEHFRWGSPPKD-OH | 53 | 36.4 | 28.4 | 56.5 | 87.8 | – | – | –
2 | H-DSGPYKMEHFRWGSPPKD-OH | – | 30.1 | – | 49.6 | 105.6 | 120.2 | 44.6 | 29.1
